This is an account of results in PubChem BioAssay (NCI).

Test systems include A498 renal; SK-MEL-2 melanoma; T-47D breast; UO-31 renal; SR leukemia; SK-MEL-5 melanoma; HCT-15 colon; TK-10 renal; MDA-MB-231 breast; LOX IMVI melanoma.
What all share (experiment): inhibition of tumour cell growth, NCI panel, 48 h

Each structure is given as a SMILES string.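 Growth conditions: 96-well plates. Treatment: test compound, 48 hours, 5 concentrations. Analysis: linear interpolation between bracketing concentrations; unreached endpoints set to highest concentration. TGI denotes the concentration required for complete inhibition of growth.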 A value given as a limit tells only on which side of the number the result lay.

Turning to `O=c1[nH]nc(Cc2ccccc2)n1/N=C/c1c[nH]c2ccccc12`, the TGI in the test with A498 renal, in the test on SK-MEL-2 melanoma, in the test with T-47D breast, in the test with UO-31 renal, in the test on SR leukemia and in the test with SK-MEL-5 melanoma was more than 100 µM each time. The TGI with HCT-15 colon, in the test on TK-10 renal, in the test with MDA-MB-231 breast and with LOX IMVI melanoma was more than 100 µM each time.
On to `CCOC(C[Se]CC(OCC)OCC)OCC`, for which the TGI in the test on A498 renal is more than 100 µM; with SK-MEL-2 melanoma it was more than 100 µM; in the test with T-47D breast, more than 100 µM; in the test with UO-31 renal it was more than 100 µM; in the test on SR leukemia, more than 100 µM; in the test with SK-MEL-5 melanoma, 29.6 µM. Moreover, the TGI in the test with HCT-15 colon is more than 100 µM; in the test on TK-10 renal, more than 100 µM; in the test with MDA-MB-231 breast, more than 100 µM; with LOX IMVI melanoma, 59.4 µM.
As for `CCCCOC(=O)C(=O)C(CCC(=O)c1ccc(C)cc1)C(=O)C=C(C)C` (stereo not given), the TGI with A498 renal, in the test on SK-MEL-2 melanoma, with T-47D breast, with UO-31 renal, in the test on SR leukemia and with SK-MEL-5 melanoma was more than 100 µM in each case. Also, the TGI with HCT-15 colon, in the test with TK-10 renal, in the test with MDA-MB-231 breast and in the test on LOX IMVI melanoma was more than 100 µM in each case.
Turning to `CC(=O)NNc1nc(C)c(C(/C=C/c2ccc3c(c2)OCO3)=N/Nc2ccccc2)s1`, the TGI in the test on A498 renal, in the test with SK-MEL-2 melanoma, with T-47D breast, in the test on UO-31 renal, in the test with SR leukemia and in the test on SK-MEL-5 melanoma was more than 100 µM in each case. For the same molecule, the TGI in the test on HCT-15 colon, with TK-10 renal, with MDA-MB-231 breast and in the test with LOX IMVI melanoma was more than 100 µM throughout.
Take `COC(=O)Cc1ccc2c(c1)Sc1ccc(CC(=O)OC)cc1N2C`: the TGI with A498 renal was 99.6 µM; in the test with SK-MEL-2 melanoma, more than 100 µM; with T-47D breast, more than 100 µM; with UO-31 renal, more than 58.5 µM; in the test with SR leukemia, more than 79.1 µM; in the test with SK-MEL-5 melanoma, 26.3 µM. Also, the TGI in the test with HCT-15 colon was more than 92.6 µM; in the test with TK-10 renal, more than 100 µM; in the test with MDA-MB-231 breast it was more than 100 µM; in the test on LOX IMVI melanoma it was more than 57.1 µM.
`Oc1ccc(/C=C\c2nnc(/C=C\c3ccc(O)c(O)c3)s2)cc1O`: the TGI in the test with A498 renal turned out to be 26.2 µM; in the test on SK-MEL-2 melanoma it was 40.7 µM; in the test on T-47D breast it was 5.37 µM; in the test with UO-31 renal it was 7.78 µM; in the test with SR leukemia it was 5.22 µM; in the test with SK-MEL-5 melanoma it was 13.9 µM. The TGI was 16.9 µM in the test with HCT-15 colon, 21.4 µM with TK-10 renal, 56.2 µM in the test on MDA-MB-231 breast and more than 55.2 µM with LOX IMVI melanoma.
With `O=[N+]([O-])c1cccc(-c2csc(N=Nc3c(O)[nH]c4ccccc34)n2)c1`, the TGI was 80.1 µM in the test with A498 renal; more than 100 µM with SK-MEL-2 melanoma; 82.4 µM in the test on T-47D breast; more than 100 µM in the test on UO-31 renal; 96.9 µM with SR leukemia; 49.9 µM in the test with SK-MEL-5 melanoma. Further, the TGI is 54.4 µM in the test on HCT-15 colon, 33.9 µM in the test on TK-10 renal, 39.5 µM in the test on MDA-MB-231 breast and 42.5 µM in the test with LOX IMVI melanoma.
`Cn1c(=O)c2c(nc(NCCCCl)n2CC(=O)O)n(C)c1=O`: the TGI in the test with A498 renal, in the test on SK-MEL-2 melanoma, in the test on T-47D breast, in the test with UO-31 renal, with SR leukemia and in the test on SK-MEL-5 melanoma was more than 100 µM throughout. The TGI in the test on HCT-15 colon, in the test with TK-10 renal, in the test with MDA-MB-231 breast and in the test on LOX IMVI melanoma was more than 100 µM throughout.
Take `NCCC(N)C(=O)O` (stereo not given): the TGI with A498 renal, in the test on SK-MEL-2 melanoma, in the test on T-47D breast, in the test on UO-31 renal, with SR leukemia and in the test on SK-MEL-5 melanoma was more than 100 µM throughout. Besides, the TGI in the test on HCT-15 colon, in the test with TK-10 renal, in the test on MDA-MB-231 breast and in the test with LOX IMVI melanoma was more than 100 µM throughout.
Turning to `Brc1ccc(N=NN2CCCCC2)cc1`, the TGI with A498 renal was more than 100 µM; with SK-MEL-2 melanoma, 45.4 µM; in the test with T-47D breast, more than 100 µM; in the test on UO-31 renal it was more than 100 µM; in the test with SR leukemia, 41.7 µM; with SK-MEL-5 melanoma, more than 100 µM. Further, the TGI with HCT-15 colon, in the test on TK-10 renal, in the test with MDA-MB-231 breast and with LOX IMVI melanoma was more than 100 µM throughout.
Turning to `CC(C)(CN)CN`, the TGI in the test on A498 renal, in the test on SK-MEL-2 melanoma, in the test with T-47D breast, with UO-31 renal, in the test with SR leukemia and with SK-MEL-5 melanoma was more than 100 µM in each case. For the same molecule, the TGI in the test on HCT-15 colon, in the test with TK-10 renal, in the test on MDA-MB-231 breast and with LOX IMVI melanoma was more than 100 µM each time.
Consider `Cc1cc2c(cc1Cl)Sc1nnc(Nc3ccccc3)n1S2(=O)=O`, for which the TGI with A498 renal worked out at 33.8 µM; in the test with SK-MEL-2 melanoma, 21.2 µM; in the test with T-47D breast it was 57.3 µM; in the test with UO-31 renal, 41.8 µM; in the test with SR leukemia, 13.6 µM; in the test with SK-MEL-5 melanoma, 53.8 µM. Also, the TGI in the test with HCT-15 colon is 28.9 µM; in the test on TK-10 renal it was 43.6 µM; in the test with MDA-MB-231 breast, 49.9 µM; in the test on LOX IMVI melanoma it was 18.7 µM.
In the case of `COc1ccc(N2C=Nn3c(nc4sc(C)c(C)c4c3=O)C2)cc1`, the TGI in the test with A498 renal, in the test with SK-MEL-2 melanoma, with T-47D breast, in the test on UO-31 renal, in the test on SR leukemia and in the test with SK-MEL-5 melanoma was more than 100 µM in each case. The TGI with HCT-15 colon, in the test on TK-10 renal, with MDA-MB-231 breast and in the test on LOX IMVI melanoma was more than 100 µM in each case.
With `CCCC/C=C1\CCC(CN2CCCCC2)C1=O` (stereo not given), the TGI in the test with A498 renal is 31.6 µM; in the test on SK-MEL-2 melanoma it was more than 54.4 µM; in the test with T-47D breast, more than 100 µM; with UO-31 renal it was 47.7 µM; with SR leukemia it was more than 24.7 µM; in the test on SK-MEL-5 melanoma, 42.6 µM. Moreover, the TGI was 20.6 µM in the test on HCT-15 colon, 28.1 µM in the test on TK-10 renal, more than 100 µM in the test with MDA-MB-231 breast and more than 48.2 µM in the test on LOX IMVI melanoma.
